Measured values: the supplement of paper PMC11208160

Assay: recombinant UMI read abundance after kanamycin selection (control-corrected) (log10(CPM+1)); higher = more efficient recombination; extreme values may be limits of the assay; sequences stand for … in AGTGCAGAGAAAATCGGCCAGTTTTCTCTGCCTGCAGTCCGCATGCCGTGGGACCCCTTGGGTTCTAACCTGTTGCCTAGATTTATGCAGCGGACTGCCTTTCTCCCAAAGTGATAAACCGG…AGGTTGGTTTCACT; site = the 11-nt donor
Method in brief: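 Values, expressed as log10(CPM+1), derive from recombinant UMI counts converted to CPM, averaged across replicates and scaled by control-derived factors. Plating was with IPTG (0.07 mM) plus kanamycin or unselected, two replicates each. The screen pooled donor and donor-binding-loop pairs for the IS621 bridge recombinase in Escherichia coli.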
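Further: IS621 bridge recombinase in Escherichia coli cells against a fixed T5 target plasmid.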

“CAATTCCCATGGACCGGTTTTCCCGGTAATCCGTATTTGCT (site CAATTCCCTCG)” and “CAATTCCCATGGACCGGTTTTCCCGGTAATCCGTATTTGCT (site CAATTCCCTGG)” are within 0.2 log units of each other in “recombinant UMI read abundance (log10)” value: 0.178 for the first, 0 for the second.

Compared with “CAATTCCCATGGACCGGTTTTCCCGGTAATCCGTATTTGCT (site CAATTCCCTTG)”, “CAATTCCCATGGACCGGTTTTCCCGGTAATCCGTATTTGCT (site CAATTCGCTAG)” is lower in “recombinant UMI read abundance (log10)” value: 0.615 for the first, 0.00609 for the second.

Compared with “CAATTCCCATGGACCGGTTTTCCCGGTAATCCGTATTTGCT (site CAATTCTCTAG)”, “CAATTCCCATGGACCGGTTTTCCCGGTAATCCGTATTTGCT (site CAATTGCCTAG)” is lower in “recombinant UMI read abundance (log10)” value: 2.13 for the first, 0 for the second.

“CAATTCCCATGGACCGGTTTTCCCGGTAATCCGTATTTGCT (site CAATTTCCTAG)” and “CAATTCCCATGGACCGGTTTTCCCGGTAATCCGTATTTGCT (site CACTTCCCTAG)” are within 0.2 log units of each other in “recombinant UMI read abundance (log10)” value: 0 for the first, 0.171 for the second.

“CAATTCCCATGGACCGGTTTTCCCGGTAATCCGTATTTGCT (site CAGTTCCCTAG)” and “CAATTCCCATGGACCGGTTTTCCCGGTAATCCGTATTTGCT (site CATTTCCCTAG)” are the same in “recombinant UMI read abundance (log10)” value: 0 for the first, 0 for the second.

Going from “CAATTCCCATGGACCGGTTTTCCCGGTAATCCGTATTTGCT (site CCATTCCCTAG)” to “CAATTCCCATGGACCGGTTTTCCCGGTAATCCGTATTTGCT (site CGATTCCCTAG)”, the “recombinant UMI read abundance (log10)” value falls from 1.17 to 0.

“CAATTCCCATGGACCGGTTTTCCCGGTAATCCGTATTTGCT (site CTATTCCCTAG)” and “CAATTCCCATGGACCGGTTTTCCCGGTAATCCGTATTTGCT (site GAATTCCCTAG)” are the same in “recombinant UMI read abundance (log10)” value: 0 for the first, 0 for the second.

Compared with “CAATTCCCATGGACCGGTTTTCCCGGTAATCCGTATTTGCT (site TAATTCCCTAG)”, “CAATTCGCATGGACCGGTTTTCCCGGTAATCCGTATTTGCT (site CAATTCACTAG)” is higher in “recombinant UMI read abundance (log10)” value: 0.428 for the first, 1.08 for the second.

Going from “CAATTCGCATGGACCGGTTTTCCCGGTAATCCGTATTTGCT (site CAATTCCCTAG)” to “CAATTCGCATGGACCGGTTTTCCCGGTAATCCGTATTTGCT (site CAATTCGCTAG)”, the “recombinant UMI read abundance (log10)” value rises from 0 to 0.564.

“CAATTCGCATGGACCGGTTTTCCCGGTAATCCGTATTTGCT (site CAATTCTCTAG)” and “CAATTCTCATGGACCGGTTTTCCCGGTAATCCGTATTTGAA (site CAATACTCTTT)” are within 0.2 log units of each other in “recombinant UMI read abundance (log10)” value: 0 for the first, 0.00453 for the second.

First: CAATTCTCATGGACCGGTTTTCCCGGTAATCCGTATTTGAA (site CAATCCTCTTT)
Second: CAATTCTCATGGACCGGTTTTCCCGGTAATCCGTATTTGAA (site CAATGCTCTTT)
The “recombinant UMI read abundance (log10)” value of the first is higher: 0.327 for the first, 0.0109 for the second.

“CAATTCTCATGGACCGGTTTTCCCGGTAATCCGTATTTGAA (site CAATTCTCTTT)” and “CACAACGCATGGACCGGTTTTCCCGGTAATCCGTATTTGCA (site CACAACGCTTG)” are within 0.2 log units of each other in “recombinant UMI read abundance (log10)” value: 2.5 for the first, 2.49 for the second.

Compared with “CACACCCCATGGACCGGTTTTCCCGGTAATCCGTATTTGCC (site CACACCCCTGG)”, “CACACCTCATGGACCGGTTTTCCCGGTAATCCGTATTTGCC (site CACACCTCTGG)” is higher in “recombinant UMI read abundance (log10)” value: 1.91 for the first, 2.87 for the second.

Going from “CACACCTCATGGACCGGTTTTCCCGGTAATCCGTATTTGCC (site CACCCCTCTGG)” to “CACACCTCATGGACCGGTTTTCCCGGTAATCCGTATTTGCC (site CACGCCTCTGG)”, the “recombinant UMI read abundance (log10)” value falls from 1.27 to 0.

First: CACACCTCATGGACCGGTTTTCCCGGTAATCCGTATTTGCC (site CACTCCTCTGG)
Second: CACAGATCATGGACCGGTTTTCCCGGTAATCCGTATTTGCT (site CACAGATCTAG)
The “recombinant UMI read abundance (log10)” value of the first is lower: 1.97 for the first, 2.32 for the second.

“CACAGCGCATGGACCGGTTTTCCCGGTAATCCGTATTTGTT (site CACAGCGCTAA)” and “CACAGGTCATGGACCGGTTTTCCCGGTAATCCGTATTTGAT (site CACAGGTCTAT)” are within 0.2 log units of each other in “recombinant UMI read abundance (log10)” value: 1.99 for the first, 2.14 for the second.

Going from “CACATGACATGGACCGGTTTTCCCGGTAATCCGTATTTGGA (site CACATGACTTC)” to “CACATGTCATGGACCGGTTTTCCCGGTAATCCGTATTTGCA (site CACATGTCTTG)”, the “recombinant UMI read abundance (log10)” value rises from 1.1 to 2.4.

First: CACATTTCATGGACCGGTTTTCCCGGTAATCCGTATTTGAA (site CACATTTCTTT)
Second: CACCACACATGGACCGGTTTTCCCGGTAATCCGTATTTGTA (site CACCACACTTA)
The “recombinant UMI read abundance (log10)” value of the first is lower: 0 for the first, 2.13 for the second.

Going from “CACCACACATGGACCGGTTTTCCCGGTAATCCGTATTTGTA (site CCCCACACTTA)” to “CACCACACATGGACCGGTTTTCCCGGTAATCCGTATTTGTA (site CGCCACACTTA)”, the “recombinant UMI read abundance (log10)” value falls from 0.591 to 0.29.

First: CACCACACATGGACCGGTTTTCCCGGTAATCCGTATTTGTA (site CTCCACACTTA)
Second: CACCCGACATGGACCGGTTTTCCCGGTAATCCGTATTTGTA (site CACCCGACTTA)
The “recombinant UMI read abundance (log10)” value of the first is lower: 0.179 for the first, 1.32 for the second.

Going from “CACCCGTCATGGACCGGTTTTCCCGGTAATCCGTATTTGTT (site CACCCGTCTAA)” to “CACCGATCATGGACCGGTTTTCCCGGTAATCCGTATTTGCC (site CACCGATCTGG)”, the “recombinant UMI read abundance (log10)” value rises from 2.2 to 2.44.

“CACCTTACATGGACCGGTTTTCCCGGTAATCCGTATTTGCC (site CACCTTACTGG)” and “CACGACACATGGACCGGTTTTCCCGGTAATCCGTATTTGTG (site CACGACACTCA)” are within 0.2 log units of each other in “recombinant UMI read abundance (log10)” value: 1.46 for the first, 1.41 for the second.

Going from “CACGATTCATGGACCGGTTTTCCCGGTAATCCGTATTTGCC (site CACGATTCTGG)” to “CACGCAGCATGGACCGGTTTTCCCGGTAATCCGTATTTGCG (site CACGCAGCTCG)”, the “recombinant UMI read abundance (log10)” value falls from 2.11 to 1.32.

“CACGCGCCATGGACCGGTTTTCCCGGTAATCCGTATTTGTG (site CAAGCGCCTCA)” and “CACGCGCCATGGACCGGTTTTCCCGGTAATCCGTATTTGTG (site CACGCGCCTCA)” are within 0.2 log units of each other in “recombinant UMI read abundance (log10)” value: 0.00364 for the first, 0.00403 for the second.

“CACGCGCCATGGACCGGTTTTCCCGGTAATCCGTATTTGTG (site CAGGCGCCTCA)” and “CACGCGCCATGGACCGGTTTTCCCGGTAATCCGTATTTGTG (site CATGCGCCTCA)” are within 0.2 log units of each other in “recombinant UMI read abundance (log10)” value: 0.056 for the first, 0 for the second.

Compared with “CACGCGTCATGGACCGGTTTTCCCGGTAATCCGTATTTGGG (site CACGCGTCTCC)”, “CACGGCCCATGGACCGGTTTTCCCGGTAATCCGTATTTGTT (site AACGGCCCTAA)” is lower in “recombinant UMI read abundance (log10)” value: 1.04 for the first, 0.0126 for the second.

Going from “CACGGCCCATGGACCGGTTTTCCCGGTAATCCGTATTTGTT (site CAAGGCCCTAA)” to “CACGGCCCATGGACCGGTTTTCCCGGTAATCCGTATTTGTT (site CACAGCCCTAA)”, the “recombinant UMI read abundance (log10)” value rises from 0.0138 to 0.215.

Compared with “CACGGCCCATGGACCGGTTTTCCCGGTAATCCGTATTTGTT (site CACCGCCCTAA)”, “CACGGCCCATGGACCGGTTTTCCCGGTAATCCGTATTTGTT (site CACGACCCTAA)” is higher in “recombinant UMI read abundance (log10)” value: 0.0224 for the first, 0.652 for the second.

“CACGGCCCATGGACCGGTTTTCCCGGTAATCCGTATTTGTT (site CACGCCCCTAA)” and “CACGGCCCATGGACCGGTTTTCCCGGTAATCCGTATTTGTT (site CACGGACCTAA)” are within 0.2 log units of each other in “recombinant UMI read abundance (log10)” value: 0.0151 for the first, 0.0168 for the second.

“CACGGCCCATGGACCGGTTTTCCCGGTAATCCGTATTTGTT (site CACGGCACTAA)” and “CACGGCCCATGGACCGGTTTTCCCGGTAATCCGTATTTGTT (site CACGGCCCTAA)” are within 0.2 log units of each other in “recombinant UMI read abundance (log10)” value: 0.0172 for the first, 0.135 for the second.

First: CACGGCCCATGGACCGGTTTTCCCGGTAATCCGTATTTGTT (site CACGGCCCTAC)
Second: CACGGCCCATGGACCGGTTTTCCCGGTAATCCGTATTTGTT (site CACGGCCCTAG)
The “recombinant UMI read abundance (log10)” value of the first is lower: 0.017 for the first, 1.14 for the second.

Compared with “CACGGCCCATGGACCGGTTTTCCCGGTAATCCGTATTTGTT (site CACGGCCCTAT)”, “CACGGCCCATGGACCGGTTTTCCCGGTAATCCGTATTTGTT (site CACGGCCCTCA)” is lower in “recombinant UMI read abundance (log10)” value: 0.437 for the first, 0.0268 for the second.

First: CACGGCCCATGGACCGGTTTTCCCGGTAATCCGTATTTGTT (site CACGGCCCTGA)
Second: CACGGCCCATGGACCGGTTTTCCCGGTAATCCGTATTTGTT (site CACGGCCCTTA)
The “recombinant UMI read abundance (log10)” value of the first is higher: 1.16 for the first, 0.0328 for the second.

Compared with “CACGGCCCATGGACCGGTTTTCCCGGTAATCCGTATTTGTT (site CACGGCGCTAA)”, “CACGGCCCATGGACCGGTTTTCCCGGTAATCCGTATTTGTT (site CACGGCTCTAA)” is higher in “recombinant UMI read abundance (log10)” value: 0.0318 for the first, 1.79 for the second.

Going from “CACGGCCCATGGACCGGTTTTCCCGGTAATCCGTATTTGTT (site CACGGGCCTAA)” to “CACGGCCCATGGACCGGTTTTCCCGGTAATCCGTATTTGTT (site CACGGTCCTAA)”, the “recombinant UMI read abundance (log10)” value rises from 0 to 0.311.

“CACGGCCCATGGACCGGTTTTCCCGGTAATCCGTATTTGTT (site CACGTCCCTAA)” and “CACGGCCCATGGACCGGTTTTCCCGGTAATCCGTATTTGTT (site CACTGCCCTAA)” are within 0.2 log units of each other in “recombinant UMI read abundance (log10)” value: 0.0115 for the first, 0.0132 for the second.

“CACGGCCCATGGACCGGTTTTCCCGGTAATCCGTATTTGTT (site CAGGGCCCTAA)” and “CACGGCCCATGGACCGGTTTTCCCGGTAATCCGTATTTGTT (site CATGGCCCTAA)” are within 0.2 log units of each other in “recombinant UMI read abundance (log10)” value: 0.00724 for the first, 0.013 for the second.

For “CACGGCCCATGGACCGGTTTTCCCGGTAATCCGTATTTGTT (site CCCGGCCCTAA)”, the “recombinant UMI read abundance (log10)” value was 0.0158.
